# Results: PubChem BioAssay (NCI)
#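 1) Cells in 96-well plates. 2) Compound, 48 h, 5 concentrations. 3) Linear interpolation between surrounding doses. 4) Unreached endpoint = highest concentration. GI50: concentration for 50% inhibition of growth. TGI marks complete inhibition of growth.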
# Tests used:
# Assay in all cases: NCI-60 cell line screen, 48 h
# [1] = system: COLO 205 colon
# [2] = system: HCT-116 colon
# [3] = system: K-562 leukemia
# [4] = system: MALME-3M melanoma
# [5] = system: MOLT-4 leukemia
# [6] = system: NCI-H23 lung
# [7] = system: OVCAR-8 ovarian
# [8] = system: U251 CNS
# [9] = system: UACC-62 melanoma
# [10] = system: DU-145 prostate
SMILES,TGI [1] [µM],TGI [2] [µM],TGI [3] [µM],TGI [4] [µM],TGI [5] [µM],TGI [6] [µM],TGI [7] [µM],TGI [8] [µM],TGI [9] [µM],GI50 [1] [µM],GI50 [2] [µM],GI50 [3] [µM],GI50 [4] [µM],GI50 [5] [µM],GI50 [6] [µM],GI50 [7] [µM],GI50 [8] [µM],GI50 [9] [µM],GI50 [10] [µM],TGI [10] [µM]
O=C(O)CCSC(=O)Nc1cccc2ccccc12,> 100,> 100,> 100,> 100,> 100,> 100,> 100,> 100,> 100,,,,,,,,,,,
C1C[OH+]CCNCC[OH+]CC[OH+]CCN1.N.[Cl-].[Pt+4],47.7,> 100,> 100,> 100,> 100,> 100,> 100,> 100,> 100,18.9,32.9,41.5,> 100,59.8,27.1,18.8,> 100,31.6,,
COc1cc2c(c(OC)c1OC)-c1c(c3ccc([N+](=O)[O-])cc3c(=O)n1CCCBr)C2=O,> 100,> 100,> 100,47.6,> 100,> 100,> 100,> 100,90.1,> 100,18.7,38.8,11.4,15.2,68.9,49.8,24.4,23.8,,
O=C1c2cc3c(cc2-c2c1c1ccc(F)cc1c(=O)n2C[C@H](O)[C@H](O)[C@H](O)CO)OCO3,0.959,,> 100,0.831,,0.482,0.66,0.258,0.195,0.193,,0.136,0.209,,0.129,0.203,0.05,0.04,0.199,1.59
CC[C@]12C=CCN3CC[C@@]4(c5ccc(OC)cc5N(C)[C@H]4[C@@](O)(C(=O)OC)[C@@H]1OC(=O)CCC(=O)O[C@H]1CC[C@H]4[C@@H]5CC[C@H]6CC(=O)CC[C@]6(C)[C@H]5CC[C@]14C)[C@@H]32,,10.1,,57.7,> 100,> 100,> 100,22.8,> 100,,1.02,,2.98,2.59,3.54,5.84,3.74,3.25,3.66,61.2
COc1ccccc1NC(=O)C1=C(C)NC(C)=C(C(=O)Nc2ccccc2OC)C1c1ccccc1Cl,> 100,> 100,> 100,> 100,> 100,> 100,> 100,> 100,> 100,,,,,,,,,,,
CC(=O)NCc1c(C(N)=O)ncn1Cc1ccccc1,> 100,> 100,> 100,,> 100,> 100,> 100,> 100,> 100,,,,,,,,,,,
O=[N+]([O-])c1cc(I)cc(/C=N/NS(=O)(=O)c2ccc(Cl)cc2)c1O,33.1,41.3,57.1,48.9,51.5,34.2,37.6,40.3,57.6,,,,,,,,,,,
COc1ccc(-c2cc(=O)c3cc(C)c(C)c(C(=O)O)c3o2)cc1,> 100,> 100,> 100,,> 100,> 100,> 100,> 100,30.7,,,,,,,,,,,
CCOC(=O)CNC(=O)OCc1ccccc1,> 100,> 100,> 100,> 100,> 100,> 100,> 100,> 100,> 100,,,,,,,,,,,
OCCN(CCO)c1nc(N2CCCCC2)c2nc(N(CCO)CCO)nc(N3CCCCC3)c2n1,> 100,> 100,> 100,46,56.5,> 100,> 100,,,,,,,,,,,,,> 100
O=C(C=Nc1ccccc1S)c1ccco1,32.1,10.4,45.8,35.1,27.5,15.6,27.3,18.7,29.5,,,,,,,,,,,
COc1cc(/C=C2\NC(=O)C3Cc4c(OC)c(C)c(OC)c(OC)c4C2N3C)c(OC)c(C)c1OC (stereo unspecified),> 100,> 100,> 100,> 100,> 100,> 100,> 100,> 100,> 100,,,,,,,,,,,
CC(=O)OC1=C2CC[C@@H]3C(CC[C@@]4(C)C3CC[C@@H]4OC(C)=O)[C@@]2(C)CC(C#N)C1=O (stereo partly specified),43.5,> 100,88.1,> 100,51.3,> 100,> 100,90.5,38.9,,,,,,,,,,,
CCN(CCO)CCCC(C)Nc1ccnc2cc(Cl)ccc12 (stereo unspecified),> 100,> 100,,> 100,,,> 100,> 100,> 100,> 100,> 100,,> 100,,,> 100,> 100,> 100,> 100,> 100
O=C(CCCC(=O)N/N=C/c1cc(Cl)ccc1O)N/N=C\c1cc(Cl)ccc1O,> 100,> 100,> 100,,23.2,> 100,> 100,> 100,,4.16,3.75,2.88,,2.52,11.9,2.86,2.31,,6.75,> 100
CN=C1CN=C(OP(=O)(N2CCOCC2)N2CCOCC2)c2cc(Cl)ccc2N1,,> 100,> 100,> 100,> 100,> 100,> 100,> 100,> 100,,,,,,,,,,,
O=[N+]([O-])c1ccc(N=Nc2c(Cl)cc(O)cc2Cl)cc1,4.17,3.08,> 100,,2.99,6.71,5.63,11.2,3.59,1.82,0.722,0.605,,0.435,1.72,1.09,0.977,1.39,2.45,11.9
